Data as given in patent US20240325378A1, “PERGOLIDE TREATMENT OF OCULAR CHEMICAL INJURY” (University of Oregon, priority 2023, published 2024).

Columns and labels:
[1] = system: C57BL/6J mice with alkali corneal injury; experiment: Wiping test (ocular pain behavior) after corneal alkali injury; assay type: in vivo, mouse; conditions: females; for wiping (eye wipes, week minus baseline): week 2 post-injury, heightened vs week 1
Protocol: Seventy (35 male, 35 female) C57BL/6J mice (The Jackson Laboratory, Maine, US) were utilized (FIG. 1A). Mice were kept in a 12 hour light/12 hour dark cycle in groups of 5 with food and water ad libitum. Differences between males and females were assessed.
(§1) Mice were separated into 7 treatment groups with 10 mice per group (5 male, 5 female); high dose pergolide (600 μg/ml), medium dose pergolide (300 μg/ml), low dose pergolide (50 μg/ml), vehicle (solution only), NGF (100 μg/ml), naïve (injury and no treatment), and normal (no injury and no treatment). Preparation of pergolide and vehicle groups were done with Marinosolv® (Marinomed, Hovengasse, Korneuburg, AT) as described in (Siegl 2019 and Zhang 2020). Recombinant mouse NGF (R&D Systems, Minneapolis, MN, US) was prepared by dissolution in 1× phosphate-buffered saline (PBS). Both solutions were stored at 4 C according to the manufacturer's guidelines.
(§2) Mice were confirmed to have normal corneas prior to starting the study. Alkali corneal injury was done on one eye of each mouse for all groups excluding the normal group, in accordance with an established mouse model (Cho J 2019). Alkali-based injury was chosen as it is one of the most common chemical injuries to the eye (Dua 2020). […] A 2 mm diameter filter paper disc was soaked in sodium hydroxide (0.75 M) then applied centrally on the cornea for 10 seconds. The disc was then removed and the ocular surface immediately irrigated with 10 ml of balanced sodium salts. The corneal surface was then lightly rubbed with the smooth side of forceps and irrigated in the same manner. None of the mice had eyelid or conjunctiva involvement of the injury. Erythromycin ointment (Perrigo, Dublin, IE) was then applied to the exterior of both eyes. Mice were placed on a water heating pad, monitored until fully awake, then returned to their cage.
All groups except the no treatment groups received their respective eye drops (10 μl per eye drop) three times daily (5 out of 7 days each week) in the injured eye for 3 weeks following injury. Mice were held for 10 seconds with the eye drop on their eye before being returned to their cage. Mice were sacrificed by cervical dislocation after week 3.
Wiping test was chosen to assess ocular pain behavior and was done once weekly (at the same time), in accordance with previously established protocols (N=10; 5 male, 5 female) (Tashiro et al. 2010, Cho J et al. 2019). Testing was performed in a clear open-top cylinder surrounded by 2 mirrors and a video recorder in front of the cylinder. Mice were habituated to the cylinder prior to the start of the study. The test consisted of applying 10 μl of sodium chloride (2 M) to the surface of the study cornea for 10 seconds, blotting excess away, then recording the mouse in the cylinder for 30 seconds. […] A different pipette tip was used for each mouse. Sudden movements and loud noises were avoided during testing so as to not distract the subjects. An eye wipe was defined as a purposeful wipe by the ipsilateral forelimb across the eye or resulting in eye closure. Cage changes were not done within 3 days of each test, and when cage changes occurred it happened for each group simultaneously. Eye wiping was assessed at baseline (3 days prior to injury) and on post-injury weeks 1, 2, and 3.

[2] = system: C57BL/6J mice with alkali corneal injury; experiment: Corneal haze grading (Roper-Hall classification) after corneal alkali injury; assay type: in vivo, mouse; conditions: 3 weeks post injury; medium dose 300 μg/ml; grade 0-4; naïve group 3.3±0.8
Protocol: as §1
as §2, with “The corneal surface was then lightly rubbed with the smooth side of forceps and irrigated in the same manner. None of the mice had eyelid or conjunctiva involvement of the injury. Erythromycin ointment (Perrigo, Dublin, IE) was then applied to the exterior of both eyes.” left out, “cage. […]” for “cage.”

[3] = system: C57BL/6J mice with alkali corneal injury; experiment: Central corneal nerve density (β-tubulin III stained flat-mounts); assay type: in vivo, mouse; conditions: 3 weeks post injury; low dose 50 μg/ml; normal control 0.43±0.05
Protocol: as §1
Mice were confirmed to have normal corneas prior to starting the study. Alkali corneal injury was done on one eye of each mouse for all groups excluding the normal group, in accordance with an established mouse model (Cho J 2019). […] Mice were placed on a water heating pad, monitored until fully awake, then returned to their cage. […]
(§3) Flat-mounts of mouse corneas were prepared and corneal nerve density was analyzed as previously described (N=6; 3 male, 3 female) (Zhang 2020) (FIG. 3A). […]
(§4) EVOS fluorescence microscope (Life Technologies, Carlsbad, CA, US) was used to create reconstructed whole-mount images and take images at the basal epithelial level in the central area of the injury. […]

[4] = system: C57BL/6J mice with alkali corneal injury; experiment: Limbal nerve density (β-tubulin III stained flat-mounts); assay type: in vivo, mouse; conditions: 3 weeks post injury, normal control 0.37±0.09
Protocol: as §1
as §2, with “cage. […]” for “cage.”
as §3, §4

C57BL/6J mice = experiment: Histopathology of heart, retina, liver and kidney after topical treatment; assay type: in vivo, mouse; conditions: high, medium, and low dose topical eye drops for 3 weeks
Protocol: (§5) Change in mouse weight was compared from baseline to 3 weeks post-injury, and weight in the pergolide groups was compared to the non-pergolide groups (N=10; 5 male, 5 female). Following euthanasia, the heart and eyes were removed from the high dose pergolide and vehicle groups and histopathology was assessed using previously described protocols.
In brief, after excision, hearts, livers, and kidneys were fixed in formalin for 24 hours then embedded in paraffin and cut in the coronal and transverse planes (N=4; 2 male, 2 female) (Droogmans 2007 & 2009). Eyes were fixed in Davidson's solution for 24 hours then placed in 70% ethanol and processed prior then embedded in paraffin and cut in the sagittal plane (N=4; 2 male, 2 female) (Chidlow 2011). Hematoxylin and eosin were used to stain the slides (Cardiff 2014), then the EVOS fluorescence microscope was used to capture images.

[5] = Change in mouse weight, baseline to 3 weeks post-injury; assay type: in vivo; conditions: medium dose 300 μg/ml group
Protocol: as §5

[6] = medium dose 300 μg/ml eye drops

Row | Molecule | wiping (eye wipes, week minus baseline) ([1]; high dose 600 μg/ml eye drops) [wipes] | wiping (eye wipes, week minus baseline) [1, 6] [wipes] | wiping at week 3 compared to week 2 ([1]; high dose 600 μg/ml eye drops) | wiping at week 3 compared to week 2 [1, 6] | corneal haze grade [2] | central corneal nerve density (proportion of area with β-tubulin III staining) [3] | limbal nerve density ([4]; high dose 600 μg/ml) | limbal nerve density ([4]; medium dose 300 μg/ml) | retina, liver and kidney morphology (C57BL/6J mice) | heart histopathology (C57BL/6J mice; compared to the vehicle group) | minor weight loss of one mouse, of initial body weight [5] | wiping (eye wipes, week minus baseline) ([1]; 100 μg/ml eye drops) [wipes] | wiping at week 3 compared to week 2 ([1]; 100 μg/ml eye drops) | limbal nerve density ([4]; 100 μg/ml)
1 | CCCN1C[C@H](CSC)C[C@@H]2c3cccc4[nH]cc(c34)C[C@H]21 [pergolide] | 7.0±5.8 | 6.2±5.5 | decreased | decreased | 2.2±1.1 | 0.10±0.03 | 0.35±0.11 | 0.34±0.08 | did not show abnormal morphology | did not show presence of valvular fibrosis, glycosaminoglycans deposits/myxoid changes, chondroid metaplasia, or other abnormal pathology | about 1% |  |  | 
2 | NGF: Recombinant mouse NGF (R&D Systems) dissolved in 1× PBS, 100 μg/ml eye drops; positive control (protein, UniProt P01139 122-241, looked up) Beta-nerve growth factor: SSTHPVFHMGEFSVCDSVSVWVGDKTTATDIKGKEVTVLAEVNINNSVFRQYFFETKCRASNPVESGCRGIDSKHWNSYCTTTHTFVKALTTDEKQAAWRFIRIDTACVCVLSRKATRRG |  |  |  |  |  |  |  |  |  |  |  | 4.6±5.1 | decreased | 0.36±0.08
